Literature values, collected in patent US20140271903A1, “USE OF THERMO-SENSITIVE GEL FOR CONTROLLED DELIVERY OF ALK-5 INHIBITORS TO THE EYE AND RELATED METHODS” (NORTHEAST OHIO MEDICAL UNIVERSITY, priority 2013, published 2014).

Tests used:
[1] = tested on: in vivo rabbit GFS model
[2] = tested on: rabbit subconjunctival fibroblasts; conditions: cultured rabbit subconjunctival fibroblasts
[3] = tested on: rabbit subconjunctival fibroblasts

| SMILES | bleb survival ([1]; recent rabbit studies, post-operative scarring after GFS) | downstream proteins of TGF-β: CTGF and a-SMA [2] | bleb survival period compared to MMC ([1]; in vivo rabbit GFS model) | period of filtering bleb survival ([1]; in vivo rabbit GFS model) | toxicity in GFS compared to MMC ([1]; rabbit, in vivo) | cytotoxicity and cell death versus antimetabolites (5-FU, MMC) [3] |
| --- | --- | --- | --- | --- | --- | --- |
| CO[C@@]12[C@H](COC(N)=O)C3=C(C(=O)C(C)=C(N)C3=O)N1C[C@@H]1N[C@@H]12 [MMC, mitomycin-C] | around 30 days | – | – | – | – | – |
| Cc1cccc(-c2[nH]c(C(C)(C)C)nc2-c2ccc3c(c2)OCO3)n1 [SB-505124] | – | marked reduction | substantially shorter compared to MMC | extended the period of filtering bleb survival | substantially lower than that of MMC | less cytotoxic and causing less cell death than antimetabolites |
